Values of other authors, collected in US20140088058A1 (PARTHENOGEN SAGL, priority 2011, published 2014).

How the values were obtained:
[1] = tested on: infarct formation
[2] = tested on: FSH and LH plasma concentration
[3] = tested on: gonadotrophin surge, oocytes collected; settings: 40 mg oral route since early days of FSH administration
[4] = tested on: LH surge

**Q.** With `NC(=O)c1ccc[n+]([C@@H]2O[C@H](COP(=O)([O-])OP(=O)(O)OC[C@H]3O[C@@H](n4cnc5c(N)ncnc54)[C@H](O)[C@@H]3O)[C@@H](O)[C@H]2O)c1` [NAD+] as the molecule, how does the “effect following rat brain ischemia” value ([1]; given by injection) read?
**A.** ineffective

**Q.** What about the “reduction of infarct formation” value ([1]; nasal route, rat brain ischemia) of the same molecule?
**A.** 90%

**Q.** For `CC#C[C@]1(O)CC[C@H]2[C@@H]3CCC4=CC(=O)CCC4=C3[C@@H](c3ccc(N(C)C)cc3)C[C@@]21C` [mifepristone, 17β-hydroxyl-11β-(4-dimethyl-aminophenyl-1)-17α-(prop-1-ynyl)-estra-4,9-diene-3-one], which “solubility in dimethyl sulfoxide (DMSO)” value (DMSO) is on record?
**A.** more than 20 mg/ml

**Q.** And the solubility in ethanol (ethanol)?
**A.** more than 20 mg/ml

**Q.** What about the “effect on FSH and LH plasma concentration” value ([2]; 10 or 100 mg per os) of the same molecule?
**A.** reduction

**Q.** And the gonadotrophin surge [3]?
**A.** did not have a gonadotrophin surge

**Q.** What about the “circulating levels of FSH and LH” value ([4]; 1 mg per os for 5 days, from dominant follicle 14-16 mm) of the same molecule?
**A.** remained flat

**Q.** What about the “LH surge timing versus placebo” value ([4]; 1 mg per os for 5 days, placebo surge within 1 to 3 days) of the same molecule?
**A.** delayed in all treated women

**Q.** Which results are given for `CC(=O)[C@H]1CC[C@H]2[C@@H]3CCC4=CC(=O)CC[C@]4(C)[C@H]3CC[C@]12C` [progesterone]?
**A.** effect on plasma FSH and LH concentration ([2]; 10 mg i.m. in mid- or late-follicular phase): acute increase; women with gonadotrophin surge within one day from first progesterone injection ([4]; after mifepristone 1 mg per os, progesterone i.m. 2.5 mg bid day 1, 5 mg bid day 2): 5 out of 6
